Data as given in PMC8378823, “X-ray free-electron laser studies reveal correlated motion during isopenicillin N synthase catalysis” (Science Advances, 2021).

Biological target: T1, isopenicillin N synthase (IPNS) (Aspergillus nidulans, UniProt P05326)
T1 construct: gene ipnA; recombinant wild type (pJB703) from E. coli NM554; S55C form from pCOLD I, N-terminal His6 tag cut with 3C protease, 37,768 Da
T1 sequence (P05326 1-331): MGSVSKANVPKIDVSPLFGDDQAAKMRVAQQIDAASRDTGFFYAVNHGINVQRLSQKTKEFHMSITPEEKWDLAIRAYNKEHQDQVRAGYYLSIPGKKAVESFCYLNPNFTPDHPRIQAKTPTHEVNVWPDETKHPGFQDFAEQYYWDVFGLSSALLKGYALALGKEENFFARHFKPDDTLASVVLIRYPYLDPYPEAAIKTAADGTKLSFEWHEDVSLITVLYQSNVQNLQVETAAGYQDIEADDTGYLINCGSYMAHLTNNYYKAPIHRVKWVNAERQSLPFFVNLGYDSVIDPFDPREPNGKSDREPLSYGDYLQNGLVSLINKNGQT
Assay: SFX and cryo synchrotron crystal structure
Assay type: binding
Conditions: Fe complex; formed in crystallo from ACV by about 30 min O2 exposure; SFX 1.60 Å at room temperature

**Q.** For CC1(C)S[C@@H]2[C@H](NC(=O)CCC[C@H](N)C(=O)O)C(=O)N2[C@H]1C(=O)O [isopenicillin N], which “SFX and cryo synchrotron crystal structure” value is on record?
**A.** Composite SFX 2mFo-DFc omit map for IPNS:Fe:IPN obtained by ~30-min O2 exposure
